# Measurements published in patent publication US7179588B1, “Assay for the detection of paclitaxel resistant cells in human tumors” (Board of Regents of the University of Texas System, priority 1999, dated 2007).
# “Also recorded” adds a separate entry of the source. Like-named read-outs stand apart in the source and are kept apart here.
# How the values were obtained:
# [1] = test system: HAβ1L215H transfected CHO cells; assay: Immunofluorescence for HA tag in drug-selected HAβ1L215H transfected populations; assay type: cell-based, Chinese hamster
# Description: FIG. 8 depicts paclitaxel selects for transfected cells that express mutant HAβ1-tubulin. Cells transfected with HAβ1L215H cDNA were selected for resistance to G418 (A, B) or paclitaxel (C, D) either in the presence (A, C) or absence (B, D) of 1 μg/ml tetracycline. The total resistant cell population was then trypsinized and replated for 24 h in medium without tetracycline or paclitaxel before processing for immunofluorescence with an antibody specific for the HA tag. Arrows in B and C indicate cells that were positive for HAβ1L215H-tubulin expression. Approximately 50% of the cells in panel A, and 100% of the cells in panel D were positive for expression. Bar=10 μm.
# Cells were grown on glass coverslips to approximately 70% of confluence and fixed in methanol (−20° C.) for at least 10 min as previously described (Gonzalez-Garay, M. L., and Cabral, F.). The primary antibody used for most experiments was mouse monoclonal 12CA5 (Boehringer Mannheim Corp., Indianapolis, Ind.), specific for the HA tag. This was followed by fluorescein conjugated goat antimouse IgG (Cappel). […]
# The ability of β-tubulin mutations to confer paclitaxel resistance was evaluated in 2 ways. […] After the appearance of visible colonies (6–7 d), one duplicate dish was stained with methylene blue and colonies were counted. […]
# [2] = test system: CHO cell line tTApuro 6.6 transfected with HAβ1L215H cDNA; assay: Cloning efficiencies of HAβ1L215H transfected cells under selective conditions; assay type: cell-based, Chinese hamster; conditions: for Number of colonies relative to G418+tetracycline, arbitrarily set at 100 / Cloning efficiency (colonies under selective conditions divided by colonies in αMEM+tetracycline): 2 mg/ml G418 or 0.2 μg/ml paclitaxel; for Cloning efficiency (colonies under selective conditions divided by colonies in αMEM+tetracycline): 6–10 d
# Description: (§1) The ability of β-tubulin mutations to confer paclitaxel resistance was evaluated in 2 ways. In the first, stably transfected cell lines expressing mutant HAβ1-tubulin were seeded at approximately 100 cells/well in replicate wells of a 24-well dish containing increasing concentrations of paclitaxel. The assay was carried out in duplicate with only one set containing 1 μg/ml tetracycline. After 6–7 d, the medium was removed and the resistant colonies were stained with a solution of 0.1% methylene blue as previously described (Cabral, F., Sobel, M. E., and Gottesman, M. M. (1980) Cell 20, 29–36). In a second assay, aliquots (˜7×10^4 cells for selective, and ˜100 cells for non-selective conditions) from total transfected cell populations were seeded into duplicate 6-well dishes containing normal medium (non-selective), 2 mg/ml G418, or 0.2 μg/ml paclitaxel, each with or without 1 μg/ml tetracycline. After the appearance of visible colonies (6–7 d), one duplicate dish was stained with methylene blue and colonies were counted. Cells in the second dish were trypsinized and replated onto glass coverslips for immunofluorescence observation.
# To rule out the possibility that we may have biased the results by examining specific clones of mutant HAβ1-tubulin expressing cells, we also tested the relative abilities of G418 and paclitaxel to select mutant HAβ1-tubulin positive cells from the total transfected cell populations. We reasoned that paclitaxel should be a powerful agent for selection of mutant HAβ1-tubulin expressing cells if, and only if, the mutant tubulin is capable of conferring resistance to the drug. To test this prediction, aliquots from an HAβ1L215H transfected cell population were grown under 6 different conditions: normal medium, medium containing 2 mg/ml G418, and medium containing 0.2 μg/ml paclitaxel, each in the presence or absence of 1 μg/ml tetracycline. Using the number of colonies obtained under nonselective conditions (normal medium containing tetracycline) as a control, the relative cloning efficiencies under the various selective conditions are summarized in Table II.
# In Table II, CHO cell line tTApuro 6.6 was transfected with HAβ1L215H cDNA. At 24 h post-transfection, the cells were trypsinized and replated in normal medium (αMEM), medium containing 2 mg/ml G418, or medium containing 0.2 μg/ml paclitaxel, all either in the presence or absence of 1 μg/ml tetracycline. After 6–10 d (when visible colonies were seen) the cells were stained with methylene blue and the surviving colonies were counted. The cloning efficiency was calculated as the number of colonies obtained under selective conditions (G418 or paclitaxel) divided by the number of colonies obtained under nonselective conditions (αMEM+tetracycline). Numbers in parentheses are the number of colonies obtained relative to G418+tetracycline which was arbitrarily set at 100.
# [3] = test system: Paclitaxel Resistant CHO Cells
# Description: Metabolic labeling was for 1 h in methionine-free MEM (ICN Biomedicals Inc., Costa Mesa, Calif.) containing 30 μCi/ml Tran ^35S-label (1,000 Ci/mmol; ICN Biomedicals).
# [4] = test system: paclitaxel resistant human ovarian cells; conditions: gradually selected to higher levels of resistance; cited from earlier work
# [5] = test system: Taxol resistant mutant Tax 5-6; assay: Cross-resistance growth assay in 24 well dishes, Tax 5-6; assay type: cell-based, Chinese hamster; conditions: about 100 cells per well, grown 7 days
# wild-type CHO cells = assay: Lethality of paclitaxel to wild-type cells; assay type: cell-based, Chinese hamster; conditions: tetracycline-free medium
# Description: Measurement of drug resistance using a standard cloning efficiency assay was complicated by the observation that clones producing moderate to high levels of mutant HAβ1-tubulin grew poorly and produced many multinucleated cells. This problem was circumvented in 2 different ways. The first came from an observation that among the multinucleated cells, there were some cells that still looked normal. […] To select these cells, clones transfected with mutant HAβ1-tubulin were incubated in tetracycline-free medium containing a concentration of paclitaxel (0.2 μg/ml) that is lethal to wild-type cells. Multiple individual colonies were selected and tested for their dose response to paclitaxel; representative results are shown in FIG. 7. […] Thus HAβ1, HAβ1L215H, HAβ1L217R, and HAβ1L228F expressing cells were all tested for paclitaxel sensitivity in the presence or absence of tetracycline.
# [6] = test system: KB3 cervical carcinoma cell line; conditions: preliminary evidence
# [7] = test system: paclitaxel dependent cell line Tax-18; assay: Cross-resistance growth assay in 24 well dishes, Tax-18; conditions: for Rescue of growth of drug-dependent Tax-18: no growth without drug
# Description: Wild-type CHO cells (WT), Taxol resistant mutant Tax 5-6 (Tax^R), and Taxol dependent mutant Tax 18 (Tax^D) were seeded into replicate wells of 24 well dishes at a density of approximately 100 cells per well in increasing concentrations of Taxol or Taxotere as indicated (in μg/ml). The cells were grown 7 days and then stained with methylene blue.
# [8] = test system: CHO cells transfected with HAβ1, HAβ1G38E, HAβ1L217R or HAβ1L228F cDNAs; assay: Direct selection of paclitaxel resistant transfected cells; assay type: cell-based, Chinese hamster
# Description: as §1
# [9] = test system: CHO cells transfected with HAβ1, HAβ1L215H, HAβ1L217R or HAβ1L228F; assay: Paclitaxel dose response of stably transfected cell lines with or without tetracycline (24-well, methylene blue); assay type: cell-based, Chinese hamster; conditions: for Sensitivity to paclitaxel: cells transfected with mutant HAβ1-tubulin
# Description: FIG. 7 depicts mutant HAβ1-tubulins confer paclitaxel resistance. Approximately 100 cells were seeded into replicate wells of 24-well dishes containing the indicated concentrations of paclitaxel (in ng/ml) with (“+”) or without (“−”) 1 μg/ml tetracycline. The cells were allowed to grow for 6–7 d and were then stained with methylene blue. The cell lines came from transfections with HAβ1 (A), HAβ1L215H (B), HAβ1L217R (C), or HAβ1L228F (D).
# as §1
# Measurement of drug resistance using a standard cloning efficiency assay was complicated by the observation that clones producing moderate to high levels of mutant HAβ1-tubulin grew poorly and produced many multinucleated cells. This problem was circumvented in 2 different ways. The first came from an observation that among the multinucleated cells, there were some cells that still looked normal. […]
# [10] = test system: paclitaxel-resistant cells; conditions: frequently observed; cited from earlier work
compound,measurement,setting,value
CN[C@@H]1[C@@H](O)[C@@H](O[C@@H]2[C@@H](O)[C@H](O[C@H]3O[C@H]([C@@H](C)O)[C@@H](O)[C@H](O)[C@H]3N)[C@@H](N)C[C@H]2N)OC[C@]1(C)O [G418],HA-positive cells in the selected population,[1]; selected under inducing conditions (no tetracycline),< 10%
same,"Number of colonies relative to G418+tetracycline, arbitrarily set at 100",[2]; +Tetracycline 1 μg/ml,100
same,Cloning efficiency (colonies under selective conditions divided by colonies in αMEM+tetracycline),[2]; +Tetracycline 1 μg/ml,1.3 × 10^−3
same,Lowering of selection efficiency under inducing conditions (no tetracycline) versus with tetracycline,[2]; G418 2 mg/ml,about 40%
same,"Number of colonies relative to G418+tetracycline, arbitrarily set at 100",[2]; −Tetracycline,60
same,Cloning efficiency (colonies under selective conditions divided by colonies in αMEM+tetracycline),[2]; −Tetracycline,7.9 × 10^−4
"CC(=O)O[C@H]1C(=O)[C@@]2(C)[C@H]([C@H](OC(=O)c3ccccc3)[C@]3(O)C[C@H](OC(=O)[C@H](O)[C@@H](NC(=O)c4ccccc4)c4ccccc4)C(C)=C1C3(C)C)[C@]1(OC(C)=O)CO[C@@H]1C[C@@H]2O [Paclitaxel, paclitaxel]",Resistant or Dependent,"[3]; cell line Tax 1–4, β-tubulin L215H",R
same,Resistant or Dependent,"[3]; cell line Tax 1–19, β-tubulin L215R",R
same,Resistant or Dependent,"[3]; cell line Tax 4–9, β-tubulin L215H",R
same,Resistant or Dependent,"[3]; cell line Tax 6–9, β-tubulin L217R",R
same,Fold resistance to paclitaxel of cell lines selected in one step,[3]; single-step selection with a single lethal dose of paclitaxel,2-3 fold
same,Fold resistance versus unselected cells,[4],24 fold
same,Resistance of Tax 5-6 compared to wild-type cells,[5],more resistant
same,HA-positive cells in the selected population,"[1]; selected under non-inducing conditions (with tetracycline), assayed following induction",< 5%
same,Selection under inducing conditions less efficient than G418 with tetracycline,"[2]; 0.2 μg/ml paclitaxel, no tetracycline",5 times
same,Fewer colonies under non-inducing conditions than under inducing conditions,"[2]; 0.2 μg/ml paclitaxel, with tetracycline",18 fold
same,"Number of colonies relative to G418+tetracycline, arbitrarily set at 100",[2]; +Tetracycline 1 μg/ml,1
same,Cloning efficiency (colonies under selective conditions divided by colonies in αMEM+tetracycline),[2]; +Tetracycline 1 μg/ml,1.4 × 10^−5
same,"Number of colonies relative to G418+tetracycline, arbitrarily set at 100",[2]; −Tetracycline,18
same,Cloning efficiency (colonies under selective conditions divided by colonies in αMEM+tetracycline),[2]; −Tetracycline,2.3 × 10^−4
same,Concentration lethal to wild-type cells,wild-type CHO cells,0.2 µg/mL
same,Drug sensitivity of paclitaxel-selected mutant KB3 cells,[6],resistant
same,Rescue of growth of drug-dependent Tax-18,[7]; grown 7 d,rescued
same,Paclitaxel resistant cells obtained by direct selection,[8]; HAβ1L217R and HAβ1L228F cDNAs,many paclitaxel resistant colonies
same,Paclitaxel resistant cells obtained by direct selection,"[8]; HAβ1 or HAβ1G38E cDNAs, repeated three times",no paclitaxel resistant cells were obtained
same,"Sensitivity to paclitaxel, HAβ1 expressed versus not expressed","[9]; HAβ1 (wild-type) transfected cells, with or without tetracycline",same sensitivity
same,Sensitivity to paclitaxel,[9]; grown with tetracycline,wild-type paclitaxel sensitivity
same,Sensitivity to paclitaxel,[9]; grown without tetracycline,clear resistance
CC(=O)O[C@@]12CO[C@@H]1C[C@H](O)[C@@]1(C)C(=O)[C@H](O)C3=C(C)[C@@H](OC(=O)[C@H](O)[C@@H](NC(=O)OC(C)(C)C)c4ccccc4)C[C@@](O)([C@@H](OC(=O)c4ccccc4)[C@H]21)C3(C)C [Taxotere],Resistance of Tax 5-6 compared to wild-type cells,[5],more resistant
same,Resistance of Tax-18 to cytotoxic effects compared to wild-type cells,[7],resistant
same,Rescue of growth of drug-dependent Tax-18,[7]; grown 7 d,rescued
COc1cc2c(c(OC)c1OC)-c1ccc(OC)c(=O)cc1[C@@H](NC(C)=O)CC2 [colchicine],Sensitivity of paclitaxel-resistant cells to the drug,[10],increased sensitivity
C/C(=C\c1csc(C)n1)[C@@H]1C[C@@H]2O[C@]2(C)CCC[C@H](C)[C@H](O)[C@@H](C)C(=O)C(C)(C)[C@@H](O)CC(=O)O1 [epothilone-B],Resistance of Tax-18 to cytotoxic effects compared to wild-type cells,"[7]; grown 7 d, stained with methylene blue",more resistant
same,Rescue of growth of drug-dependent Tax-18,[7]; grown 7 d,rescued
CC[C@]1(O)C[C@@H]2CN(CCc3c([nH]c4ccccc34)[C@@](C(=O)OC)(c3cc4c(cc3OC)N(C)[C@H]3[C@@](O)(C(=O)OC)[C@H](OC(C)=O)[C@]5(CC)C=CCN6CC[C@]43[C@@H]65)C2)C1 [vinblastine],Drug sensitivity of paclitaxel-selected mutant KB3 cells,[6],hypersensitive
same,Sensitivity of paclitaxel-resistant cells to the drug,[10],increased sensitivity; also recorded: hypersensitive
CC[C@]1(O)C[C@H]2CN(CCc3c([nH]c4ccccc34)[C@@](C(=O)OC)(c3cc4c(cc3OC)N(C=O)[C@H]3[C@@](O)(C(=O)OC)[C@H](OC(C)=O)[C@]5(CC)C=CCN6CC[C@]43[C@@H]65)C2)C1 [vincristine],Sensitivity of paclitaxel-resistant cells to the drug,[10],hypersensitive
